Measurements: US10857201B2, “NNIF and nNIF-related peptides and related methods” (UNIVERSITY OF UTAH RESEARCH FOUNDATION, priority 2016, dated 2020)
“Also recorded” adds a separate entry of the source.

Key:
[1] = system: neutrophil extracellular trap (NET) formation; test: In vitro NET formation by stimulated human PMNs (live cell imaging, NET-associated histone H3 release); format: cell-based; conditions: for NET formation triggered by LPS: adult PMNs preincubated with agent, LPS 100 ng/mL, 1 hour
Description: Qualitative assessment of NET formation was performed as previously reported (see Yost C C, et al., Blood. 2009; 113 (25):6419-27 and McInturff A M, et al., Blood. 2012; 120 (15):3118-25). Briefly, primary PMNs isolated from preterm infants, healthy term infants, and healthy adults (2×10^6 cells/mL) were incubated with control buffer or stimulated with indicated agonists or bacteria for 1 hour at 37° C. in 5% CO2/95% air on glass coverslips coated with poly-L-lysine. For selected experiments, primary PMNs were pre-incubated with autologous plasma, cord blood plasma, nNIF (0.2-70 nM), CRISPP (0.2-70 nM), nNIF-SCR (1 nM), or CRISPP-SCR (1 nM) for one hour prior to stimulation. After pre-incubation and/or stimulation, PMNs were gently washed with PBS and incubated with a mixture of cell permeable (SYTO® Green, MOLECULAR PROBES®) and impermeable (SYTOX® Orange, MOLECULAR PROBES®) DNA fluorescent dyes. Confocal microscopy was accomplished using a FV1000 IX81 confocal microscope and FLUOVIEW™ software (OLYMPUS™). Both 20× and 60× objectives were used. Z-series images were obtained at a step size of 1 μm over a range of 20 μm for each field. FLUOVIEW™ and ADOBE™ PHOTOSHOP™ CS2 software was used for image processing.
Using BSL 2 safety protocols, primary PMNs isolated from healthy adults (2×10^6 cells/mL) were incubated with mock infection buffer or live dengue virus (M010.05) as for live cell imaging. After a 1-hour incubation, the infected PMNs were fixed with 2% p-FA for 10 minutes prior to incubation with fluorescently-labeled, cell-permeable and cell-impermeable DNA dyes, and imaged as for live cell imaging using confocal microscopy.
NET-associated histone H3 content was determined as previously described (see McInturff A M, et al., Blood. 2012; 120 (15):3118-25). After live cell imaging of control and stimulated primary PMNs (2×10^6/mL; various agonists), the cells were incubated with PBS containing DNase (40 U/mL) for 15 minutes at room temperature to break down and release NETs formed in response to stimulation. The supernatant was gently removed and centrifuged at 420×g for 5 minutes. The cell-free supernatant was then mixed 3:1 with 4× Laemmli buffer prior to western blotting. A polyclonal primary antibody against human histone H3 protein (CELL SIGNALING®) and infrared-conjugated secondary antibodies (LI-COR®) were used. Imaging and densitometry were performed on the ODYSSEY® infrared imaging system)(LI-COR®). This assay was previously validated as a surrogate for NET formation under in vitro conditions (see McInturff A M, et al., Blood. 2012; 120 (15):3118-25) as employed in the present studies.
Without being bound by any specific theory, it was hypothesized that placentally expressed HTRA1, a serine protease, regulates the formation of NET-inhibitory peptides through cleavage of AAT. To test this hypothesis, term and preterm placenta were assessed for HTRA1 expression via western blotting. HTRA1 and AAT plasma expression from term and preterm infants and adults were determined by ELISA. Bioactive (0.5 μg) or placental eluted HTRA1 was incubated with AAT (8 μM) for 18 hours at 37° C. Carboxy-terminus fragments of AAT were detected using western blotting and mass spectrometry. The reaction products were incubated for 1 hour with PMNs isolated from healthy adults prior to LPS stimulation (100 ng/mL) and assessed for NET formation using live cell imaging. Reactive oxygen species were assessed using flow cytometry, chemotaxis using a modified Boyden chamber assay, and bacterial killing using E. coli.

[2] = system: nuclear chromatin decondensation in PMNs; test: Nuclear decondensation assay in PMA-treated neutrophils; format: cell-based, human; conditions: PMA 20 nM; peptides 1 nM, Cl-amidine 10 μM, sivelestat 200 nM
Description: FIG. 7B is a graph depicting nuclear areas that were measured (n=4) using IMAGEJ™ software (mean nuclear pixel area per cell±SEM). Paired Student's t test, *P<0.05, § P=0.057.
FIG. 12A depicts nuclear decondensation (white arrowheads and magnified image) that were assessed as in FIGS. 7A-7E after a 1 hour preincubation in medium alone, with neutrophil elastase (NE) inhibitor sivelestat (SIVL; 200 nM), or with CRISPP or CRISPP-SCR (both 1 nM) followed by treatment with PMA (20 nM) and an additional 1 hour incubation (n=3). Green fluorescence=nuclear DNA, (60× magnification, scale bar=20 μm). Nuclear area was quantified using IMAGEJ™ software (nuclear pixel area per cell±SEM). One way ANOVA with Tukey's post hoc testing; **P<0.01, ***P<0.001.
Nuclear decondensation was identified as described (see Papayannopoulos V, et al., J Cell Biol. 2010; 191 (3):677-91). Five randomly selected high-power visual fields per sample were captured via confocal microscopy and analyzed for nuclear area using the cell-permeable, fluorescent DNA dye SYTO® Green. The nuclear pixel areas of >100 individual cells per high-power field were determined using IMAGEJ™ software (NIH).

neutrophil elastase (NE) = biological target: T1, neutrophil elastase (NE) (Homo sapiens, UniProt P08246); test: Neutrophil elastase activity assay; format: biochemical; conditions: in vitro; (MeOSuc)-AAPV-(pNA) 160 μM, 3 hours, 37° C., and additional assays
T1 construct: purchased SIGMA-ALDRICH
T1 sequence (P08246 30-267): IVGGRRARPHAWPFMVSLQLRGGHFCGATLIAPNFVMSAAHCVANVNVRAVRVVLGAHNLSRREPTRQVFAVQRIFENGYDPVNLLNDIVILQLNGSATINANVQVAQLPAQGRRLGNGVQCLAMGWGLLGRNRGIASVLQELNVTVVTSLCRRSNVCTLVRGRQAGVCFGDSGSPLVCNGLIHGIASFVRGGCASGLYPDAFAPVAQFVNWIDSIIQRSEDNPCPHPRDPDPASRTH
Description: FIG. 12B depicts NE enzyme activity that was examined by cleavage of the synthetic substrate (MeOSuc)-AAPV-(pNA) to (MeOSuc)-AAPV and (pNA) as products detected by liquid chromatography and chromatogram peak identification by mass spectroscopy. (MeOSuc)-AAPV-(pNA) (160 μm) was incubated with NE (2 mU), sivelestat (160 μm), or NE and sivelestat (left panel) or with NE (2 mU), nNIF ([…]), or NE and nNIF (right panel) for 3 hours at 37° C. Chromatograms are offset on the X and Y axes for ease of comparison. In the presence of NE alone, the (MeOSvc)-AAPV-(pNA) peak was almost completely eliminated and (MeOSvc)-AAPV and (pNA) peaks were generated. […] In contrast, it was not inhibited by nNIF.
Synthetic fluorogenic substrate of NE, (MeOSuc)-AAPV-(pNA) (160 μM), was incubated with bioactive NE (500 nM)±the NE inhibitor, sivelestat (160 μM) or nNIF (50 nM), for 3 hours at 37° C. The reactions were quenched with 5% glacial acetic acid and centrifuged at 14,000 rpm for 5 minutes. Chromatograms were obtained using an AGILENT™ 1100 Series HPLC and a PHENOMENEX® 5 μm C18 LUNA® column (100 Å, 4.6×150 mm) over a 30 minute 10% to 90% B gradient (Buffer A 0.1% TFA in H2O, Buffer B 0.1% TFA in ACN). Mass spectra were obtained for secondary validation of the reaction products using an API® 3500 triple quadrupole mass spectrometer. Chromatograms were offset on both the X and Y axes (by 0.5 minutes and 0.1 A214, respectively) for greater visibility.

recombinant PAD4 = biological target: T2, recombinant PAD4 (Homo sapiens, UniProt Q9UM07); test: Cell-free PAD4 deimination assay; format: biochemical; conditions: initial comparison of NRPs
T2 construct: purchased CAYMAN
Description: One way ANOVA with Tukey's post hoc testing, ***P<0.001.
nNIF inhibition of PAD4 activity was determined using a PAD4 inhibitor screening assay kit (CAYMAN™). Briefly, nNIF (1 nM) was incubated with recombinant PAD4 and PAD4 enzyme substrate (2 mM) in PAD4 assay reagent for 30 minutes at 37° C. […] The reaction was stopped with PAD4 Stop Solution and detected using an included ammonia detector assay. Ammonia detector fluorescence was measured at 470 nm following excitation at 405 nm on a SPECTRAMAX™ M5 fluorescence plate reader (MOLECULAR DEVICES™).

previously-formed NETs = test: Post-treatment of previously formed NETs (dismantling); format: cell-based, human; conditions: agent added after LPS stimulation; nNIF, CRISPP 1 nM; DNase 3.78 U/mL
Description: FIG. 4A is a series of images depicting neutrophils isolated from venous blood of healthy adults that were incubated in medium alone (Control) or activated with LPS (100 ng/mL). CRISPP (1 nM) was added at 0, 30, or 60 minutes after LPS, and the presence of NETs was assessed by live cell imaging as in FIG. 1A after an additional 1 hour of incubation (20× magnification; scale bar=100 μm). The images are representative of three separate experiments.
For selected experiments, primary PMNs were pre-incubated with autologous plasma, cord blood plasma, nNIF (0.2-70 nM), CRISPP (0.2-70 nM), nNIF-SCR (1 nM), or CRISPP-SCR (1 nM) for one hour prior to stimulation. After pre-incubation and/or stimulation, PMNs were gently washed with PBS and incubated with a mixture of cell permeable (SYTO® Green, MOLECULAR PROBES®) and impermeable (SYTOX® Orange, MOLECULAR PROBES®) DNA fluorescent dyes. Confocal microscopy was accomplished using a FV1000 IX81 confocal microscope and FLUOVIEW™ software (OLYMPUS™). Both 20× and 60× objectives were used. Z-series images were obtained at a step size of 1 μm over a range of 20 μm for each field. FLUOVIEW™ and ADOBE™ PHOTOSHOP™ CS2 software was used for image processing.

[3] = system: nuclear histone H3 citrullination; test: Histone H3 citrullination in PMA-activated neutrophils (immunocytochemistry); format: cell-based, human; conditions: PMA 20 nM, 15 minutes; peptides 1 nM, Cl-amidine 10 μM
From the text: Green fluorescence=citrullinated-histone H3, magenta fluorescence=nuclear DNA (60× magnification; scale bar=20 μm). The right panel depicts Histone H3 citrullination that was quantified using IMAGEJ™ software (mean citrullinated-histone H3 pixel area per cell±SEM) (n=3). One way ANOVA with Tukey's post hoc testing, *P<0.05.
Imaging was accomplished via confocal microscopy using a FV1000 IX81 confocal microscope and FLUOVIEW™ software (OLYMPUS™). Semi-quantitation was accomplished using IMAGEJ™ software (NIH) to determine the average citrullinated histone H3 content per cell.

T2 sequence (Q9UM07 whole entry): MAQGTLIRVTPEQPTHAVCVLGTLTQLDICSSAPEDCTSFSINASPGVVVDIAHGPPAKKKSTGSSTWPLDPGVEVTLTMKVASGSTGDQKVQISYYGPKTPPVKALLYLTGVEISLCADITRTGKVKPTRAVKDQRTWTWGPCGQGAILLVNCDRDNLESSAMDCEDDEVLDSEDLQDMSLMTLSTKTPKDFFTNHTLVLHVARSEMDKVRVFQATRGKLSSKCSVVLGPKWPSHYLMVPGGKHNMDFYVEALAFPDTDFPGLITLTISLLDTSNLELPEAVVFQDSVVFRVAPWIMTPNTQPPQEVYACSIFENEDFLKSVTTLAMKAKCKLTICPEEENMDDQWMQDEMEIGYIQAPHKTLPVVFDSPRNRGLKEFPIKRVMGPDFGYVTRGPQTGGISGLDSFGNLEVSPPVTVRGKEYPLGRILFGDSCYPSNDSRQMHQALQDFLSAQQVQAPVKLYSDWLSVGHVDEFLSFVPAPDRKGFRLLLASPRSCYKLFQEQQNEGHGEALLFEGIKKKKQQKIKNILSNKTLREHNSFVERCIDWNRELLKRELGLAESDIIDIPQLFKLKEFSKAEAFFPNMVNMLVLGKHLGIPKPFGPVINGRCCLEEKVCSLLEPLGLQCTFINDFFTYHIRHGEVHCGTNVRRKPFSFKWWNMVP

## recombinant A1AT: active full-length recombinant A1AT from SIGMA-ALDRICH
[1]
  NET formation triggered by LPS: did not inhibit NET formation

## PMVSVAMMLSENIFKLPEVKSVPTEFFPKFINMKLLPFQI (Scrambled Peptide Control) [A1ATm^358-SCR, scrambled A1ATm^358, reference compound]
[1]
  NET formation triggered by LPS: not

## SIPPEVKFNKPFVFLMIEQNTKSPLFMGKWNPTQK (listed as Homo sapiens) [HTRA1-CF, synthesized peptide generated by cleavage of A1AT by HTRA1]
[1]; agonist not stated
  NET formation (FIG. 14): inhibits NET formation

## CC(C)(C)C(=O)Oc1ccc(S(=O)(=O)Nc2ccccc2C(=O)NCC(=O)O)cc1 [sivelestat, reference compound]
[2]
  nuclear decondensation (number of decondensed nuclei): blocks nuclear decondensation
Neutrophil elastase (NE)
  NE activity (substrate cleavage): inhibited but not eliminated

## alpha-1-antitrypsin [full-length A1AT]
[1]
  NET formation triggered by LPS: did not inhibit NET formation

## LNTNKTKMGVQFPKMPFFKQIPVNSLEFV (Scrambled Peptide Control) [nNIF-SCR, scrambled control peptide of nNIF, reference compound]
[1]
  NET formation triggered by LPS: does not

## MFLEAIPMSIPPEVKFNKPFVFLMIEQNTKSPLFMLKVVS (listed as Homo sapiens) [A1ATm^358]
Recombinant PAD4
  order of potency of inhibition of PAD4: nNIF ≈CRISPP>A1ATm^358
[1]
  NET formation triggered by LPS: inhibits NET formation, although with lesser potency than nNIF; also recorded: concentration-dependent pattern of inhibition
[1]; initial comparison of NRPs
  relative inhibition of NETosis (order of potency): nNIF ≈CRISPP>A1ATm^358

## DNase [reference compound]
previously-formed NETs
  degradation or dismantling of previously-formed NETs: dismantled

## NC(=O)[C@H](CCCN=C(N)CCl)NC(=O)c1ccccc1 [Cl-amidine, reference compound]
[2]
  nuclear decondensation (number of decondensed nuclei): blocked nuclear decondensation
[3]
  nuclear histone H3 citrullination: inhibited
